For data set [1] the following is noted: rat plasma, 37° C., HPLC.
Protocol: (§1) 0.1 ml samples were taken from each of the solutions, added respectively to 1 ml of blood plasma of rabbit (taken from New Zealand white rabbits, treated according to conventional methods, anticoagulated with heparin) or 1 ml of blood plasma of rat (taken from live SD rats, processed according to conventional methods, anti coagulated with heparin), homogeneously mixed, and placed in a thermostatic water bath at 37° C. for incubation with time being recorded. Samples were taken at different time points after the experiment began, and 2 ml of acetonitrile was immediately added. The samples were shaken and centrifuged for 5 min (15,000 rpm), and the supernatant was then taken for HPLC analysis.
The conditions of data set [2]: rabbit plasma, 37° C., HPLC.
Protocol: as §1

Each structure is given as a SMILES string. Like-named read-outs stand apart in the source and are kept apart here.

Regarding `CCN(C)CCC(F)C(=O)Oc1c(C(C)C)cccc1C(C)C.Cl` (racemic) [E4, propofol 4-N-methyl-N-ethylamino-2-(R,S)-2-fluorobutyrate hydrochloride], the “Dissociation percent 5 s” value in data set [1] came to 70.2%. In addition, in data set [2], the “Dissociation percent 15 s” value turned out to be 58.3% and the “Dissociation percent 30 s” value is reported as 70.4%.
`CC(C)NCC(CF)C(=O)Oc1c(C(C)C)cccc1C(C)C.CS(=O)(=O)O` (racemic) [E6, propofol 3-N-isopropylamino-2-(R,S)-2-monofluoromethylpropionate methanesulfonate]: in data set [1], the “Dissociation percent 5 s” value amounted to 24.2% and the “Dissociation percent 15 s” value amounted to 40.1%. Also, in data set [2], the “Dissociation percent 15 s” value is listed as 27.1% and the “Dissociation percent 30 s” value is on record as 44.3%.
As for `CC(C)c1cccc(C(C)C)c1OC(=O)C(F)CCCCCC(=O)[O-].CC(C)c1cccc(C(C)C)c1OC(=O)C(F)CCCCCC(=O)[O-].[Ca+2]` (racemic) [F4, di[propofol 7-carboxyl-2-(R,S)-fluorocaprylate] calcium salt], the “Dissociation percent 5 s” value in data set [1] is 63.8%. In addition, in data set [2], the “Dissociation percent 15 s” value was 48.3% and the “Dissociation percent 30 s” value stood at 61.7%.
Consider `CC(C)c1cccc(C(C)C)c1OC(=O)C(CF)CCCCCCC(=O)[O-].CC(C)c1cccc(C(C)C)c1OC(=O)C(CF)CCCCCCC(=O)[O-].CC(C)c1cccc(C(C)C)c1OC(=O)C(CF)CCCCCCC(=O)[O-].[Al+3]` (racemic) [F6, tri[propofol 8-carboxyl-2-(R,S)-monofluoromethylpelargonate] aluminum salt], for which, in data set [1], the “Dissociation percent 5 s” value is given as 34.2% and the “Dissociation percent 15 s” value was 55.7%. Further, in data set [2], the “Dissociation percent 15 s” value amounted to 37.1% and the “Dissociation percent 30 s” value is 58.3%.
Take `CC(C)c1cccc(C(C)C)c1OC(=O)C(F)CCOP(=O)([O-])[O-].[K+].[K+]` (racemic) [G1, {1-[4-(2,6-diisopropylphenoxy)-4-oxo-3-(R,S)-3-fluoro-1-butyl]} phosphate monoester dipotassium salt]: in data set [1], the “Dissociation percent 5 s” value came out at 54.1%, the “Dissociation percent 15 s” value came to 67.4% and the “Dissociation percent 30 s” value is 86.9%. For the same compound, in data set [2], the “Dissociation percent 15 s” value stood at 43.7% and the “Dissociation percent 30 s” value is given as 68.7%.
As for `CC(C)c1cccc(C(C)C)c1OC(=O)C(CF)CP(=O)([O-])[O-].CC(C)c1cccc(C(C)C)c1OC(=O)C(CF)CP(=O)([O-])[O-].CC(C)c1cccc(C(C)C)c1OC(=O)C(CF)CP(=O)([O-])[O-].[Al+3].[Al+3]` (racemic) [G6, tri[propofol 3-phosphoryl-2-(R,S)-2-monofluoromethylpropionate] dialuminum salt], in data set [1], the “Dissociation percent 5 s” value was 22.1% and the “Dissociation percent 15 s” value is listed as 39.7%. Also, in data set [2], the “Dissociation percent 15 s” value came out at 27.1% and the “Dissociation percent 30 s” value is listed as 44.3%.
For the compound `CC(C)c1cccc(C(C)C)c1OC(=O)[C@@H](CCN(C)C)C(F)(F)F.Cl` [E3, propofol 4-N,N-dimethylamino-2-(R)-2-trifluoromethylbutyrate hydrochloride], the “Dissociation percent 5 s” value in data set [1] came out at 77.5%. Besides, in data set [2], the “Dissociation percent 15 s” value came to 51.7% and the “Dissociation percent 30 s” value turned out to be 67.2%.
On to `CC(C)c1cccc(C(C)C)c1OC(=O)[C@@H](F)CCCN(C)Cc1ccccc1.Cl` [E5, propofol 5-N-methyl-N-benzylamino-2-(S)-2-fluorovalerate hydrochloride], for which, in data set [1], the “Dissociation percent 5 s” value was found to be 72.3% and the “Dissociation percent 15 s” value stood at 97.3%. Besides, in data set [2], the “Dissociation percent 15 s” value was found to be 48.4% and the “Dissociation percent 30 s” value was 69.7%.
With `CC(C)c1cccc(C(C)C)c1OC(=O)[C@@H](F)CCN1CC1.Cl` [E7, propofol 4-(aziridin-1-yl)-2-(S)-2-fluorobutyrate hydrochloride], the “Dissociation percent 5 s” value in data set [1] is 92.3%. Besides, in data set [2], the “Dissociation percent 15 s” value was found to be 89.4% and the “Dissociation percent 30 s” value is on record as 94.4%.
On the same counts, the results for `CC(C)c1cccc(C(C)C)c1OC(=O)[C@H](F)CCN1CCCC1.Cl` [E8, propofol 4-(pyrrolidin-1-yl)-2-(R)-2-fluorobutyrate hydrochloride] are 95.6%, 91.1% and 98.2%.
On the same counts, the results for `CC(C)c1cccc(C(C)C)c1OC(=O)C(F)CCC(=O)[O-].[K+]` [F2, propofol 4-carboxyl-2-(S)-fluorovalerate potassium salt] are 92.3%, 73.4% and 94.8%.
For `CC(C)c1cccc(C(C)C)c1OC(=O)C(CCC(=O)[O-])C(F)(F)F.[Li+]` [F3, propofol 4-carboxyl-2-(R)-2-trifluoromethyl valerate lithium salt], the “Dissociation percent 5 s” value in data set [1] is reported as 47.4%. In data set [2], the “Dissociation percent 15 s” value was determined as 28.4% and the “Dissociation percent 30 s” value amounted to 47.9%.
With `CC(C)c1cccc(C(C)C)c1OC(=O)C(F)CCCC(=O)[O-].CC(C)c1cccc(C(C)C)c1OC(=O)C(F)CCCC(=O)[O-].[Zn+2]` [F5, di[propofol 5-carboxyl-2-(S)-fluorohexanoate] zinc salt], in data set [1], the “Dissociation percent 5 s” value stood at 63.2% and the “Dissociation percent 15 s” value stood at 80.3%. In data set [2], the “Dissociation percent 15 s” value is on record as 34.9% and the “Dissociation percent 30 s” value is 58.8%.
On to `CC(C)c1cccc(C(C)C)c1OC(=O)C(F)C(=O)[O-].[Na+]` [F8, Propofol-2-(R)-fluoropropionate monoester sodium salt], for which, in data set [1], the “Dissociation percent 5 s” value turned out to be 55.5%, the “Dissociation percent 15 s” value came out at 69.3% and the “Dissociation percent 30 s” value turned out to be 83.3%. Moreover, in data set [2], the “Dissociation percent 15 s” value is reported as 41.2% and the “Dissociation percent 30 s” value is listed as 70.4%.
As to `CC(C)c1cccc(C(C)C)c1OC(=O)[C@@H](CCOP(=O)([O-])[O-])C(F)(F)F.[Li+].[Li+]` [G3, {1-[4-(2,6-diisopropylphenoxy)-4-oxo-3-(R)-3-trifluoromethyl-1-butyl]} phosphate monoester dilithium salt], the “Dissociation percent 5 s” value in data set [1] is recorded as 38.7%. In data set [2], the “Dissociation percent 15 s” value is 21.7% and the “Dissociation percent 30 s” value stood at 43.6%.

Values taken from patent US9643917B2, “Water-soluble propofol derivatives and uses thereof” (JIANGSU NHWALUOKANG PHARMCEUTICAL RESEARCH AND DEVELOPMENT …, priority 2014, dated 2017).
